{
  "source": "patent US5198552A",
  "about": "“Indole derivative having antiviral, interferon-inducing and immunomodulatory effects” (priority 1991, dated 1993)",
  "key": {"lymphocytes": {"tested_on": "lymphocytes", "assay_type": "in vivo, human"}, "antibody-producing cells": {"tested_on": "antibody-producing cells", "assay": "Antibody-producing cells in the spleen of mice immunized with sheep erythrocytes", "assay_type": "in vivo", "design": "immune response against the control: concentration or dose not given beside the values"}, "[1]": {"conditions": "single 100 mg and 300 mg daily per os"}},
  "data": [
    {"smiles": "CCOC(=O)c1c(CSc2ccccc2)n(C)c2cc(Br)c(O)c(CN(C)C)c12.Cl.O", "note": "[preparation of the invention, ethyl 6-bromo-5-hydroxy-4-dimethylaminomethyl-1-methyl-2-phenylthiomethylindole-3-carboxylate hydrochloride monohydrate]", "values": [
      {"measurement": "bonding receptors with the outer lymphocyte membrane", "setting": "lymphocytes; [1]", "result": "leads to changes in bonding receptors with the outer lymphocyte membrane"},
      {"measurement": "counts of T-populations", "setting": "lymphocytes; [1]", "result": "fails to change the counts of T-populations"},
      {"measurement": "persistence of changes in bonding receptors", "setting": "lymphocytes; time of observation", "result": 14, "unit": "days"},
      {"measurement": "effect of vaccination on the nature of changes of bonding receptors", "setting": "lymphocytes; vaccination 24 hours after administering", "result": "no effect on the nature of changes of bonding receptors"},
      {"measurement": "immunopotentiating effect on tumor-carrier animals", "setting": "antibody-producing cells; 7-17 day of tumor development, single (3 days prior to immunization) or 5-times daily", "result": "immunopotentiating effect on tumor-carrier animals"},
      {"measurement": "Antibody-producing cells in spleen (% of control)", "setting": "antibody-producing cells; intact mice, a single use", "result": "246 ± 6.0", "unit": "%"},
      {"measurement": "Antibody-producing cells in spleen (% of control)", "setting": "antibody-producing cells; intact mice, during 3 days, daily", "result": "141 ± 13", "unit": "%"},
      {"measurement": "Antibody-producing cells in spleen (% of control)", "setting": "antibody-producing cells; intact mice, during 5 days, daily", "result": "192 ± 14.0", "unit": "%"},
      {"measurement": "immunostimulating effect on irradiated animals", "setting": "antibody-producing cells; irradiated animals", "result": "pronounced immunostimulating effect"},
      {"measurement": "immune response against the control", "setting": "antibody-producing cells; irradiated animals, administered 3 days prior to irradiation", "result": 230, "unit": "%"},
      {"measurement": "stimulation of antibody genesis, compared with reference standards", "setting": "antibody-producing cells; mice, intact and irradiated", "result": "superior over reference standards--levamisole and a double-stranded RF2 phage RNA"},
      {"measurement": "Antibody-producing cells in spleen (% of control)", "setting": "antibody-producing cells; totally irradiated (2 Gr.), 5 times in 3 days", "result": "96 ± 20.0", "unit": "%"},
      {"measurement": "Antibody-producing cells in spleen (% of control)", "setting": "antibody-producing cells; totally irradiated (2 Gr.), a single use", "result": "230 ± 12.0", "unit": "%"},
      {"measurement": "Antibody-producing cells in spleen (% of control)", "setting": "antibody-producing cells; totally irradiated (2 Gr.), during 3 days, daily", "result": "129 ± 19", "unit": "%"},
      {"measurement": "Antibody-producing cells in spleen (% of control)", "setting": "antibody-producing cells; totally irradiated (2 Gr.), during 5 days, daily", "result": "181 ± 11.3", "unit": "%"},
      {"measurement": "immunopotentiating effect on totally irradiated tumor-carrier animals", "setting": "antibody-producing cells; totally irradiated tumor-carriers", "result": "pronounced immunopotentiating effect"},
      {"measurement": "Antibody-producing cells in spleen (% of control)", "setting": "antibody-producing cells; totally irradiated tumor-carriers (2 Gr.), 5 times in 3 days", "result": "250 ± 21.5", "unit": "%"},
      {"measurement": "Antibody-producing cells in spleen (% of control)", "setting": "antibody-producing cells; totally irradiated tumor-carriers (2 Gr.), during 3 days, daily", "result": "121 ± 25", "unit": "%"},
      {"measurement": "Antibody-producing cells in spleen (% of control)", "setting": "antibody-producing cells; totally irradiated tumor-carriers (2 Gr.), during 5 days, daily", "result": "128 ± 28.5", "unit": "%"},
      {"measurement": "Antibody-producing cells in spleen (% of control)", "setting": "antibody-producing cells; tumor-carriers, 5 times in 3 days", "result": "110 ± 11.0", "unit": "%"},
      {"measurement": "Antibody-producing cells in spleen (% of control)", "setting": "antibody-producing cells; tumor-carriers, a single use", "result": "211 ± 10.0", "unit": "%"},
      {"measurement": "Antibody-producing cells in spleen (% of control)", "setting": "antibody-producing cells; tumor-carriers, during 3 days, daily", "result": "99 ± 19", "unit": "%"}
    ]}
  ]
}
